According to US12065436B2, “Cardiac sarcomere inhibitors” (Cytokinetics, Inc., priority 2018, dated 2024):

Target: bovine cardiac myofibrils (full-length cardiac myosin ATPase in the native sarcomere) (Bos taurus (Bovine), UniProt Q9BE39)
Assay: Skinned bovine cardiac myofibril ATPase assay (PK/LDH-coupled)
Format: biochemical
Details: Ca2+ activating to 75% of maximal rate; for CDMF75 IC15: concentration giving 15% inhibition; for IC50: read-out: CDMF75 IC50
Method in brief: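 Inhibition of steady-state ATPase read at 340 nm through a PK/LDH-coupled NADH system (0.5 mM NADH, 1.5 mM PEP). Detergent-skinned bovine cardiac myofibrils, 1 mg/mL, were tested at pH 6.8 in PIPES/MgCl2 with 50 μM ATP and calcium adjusted to give pCa50 or pCa75 activation.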

Chain of bovine cardiac myofibrils (full-length cardiac myosin ATPase in the native sarcomere) (Q9BE39 whole entry): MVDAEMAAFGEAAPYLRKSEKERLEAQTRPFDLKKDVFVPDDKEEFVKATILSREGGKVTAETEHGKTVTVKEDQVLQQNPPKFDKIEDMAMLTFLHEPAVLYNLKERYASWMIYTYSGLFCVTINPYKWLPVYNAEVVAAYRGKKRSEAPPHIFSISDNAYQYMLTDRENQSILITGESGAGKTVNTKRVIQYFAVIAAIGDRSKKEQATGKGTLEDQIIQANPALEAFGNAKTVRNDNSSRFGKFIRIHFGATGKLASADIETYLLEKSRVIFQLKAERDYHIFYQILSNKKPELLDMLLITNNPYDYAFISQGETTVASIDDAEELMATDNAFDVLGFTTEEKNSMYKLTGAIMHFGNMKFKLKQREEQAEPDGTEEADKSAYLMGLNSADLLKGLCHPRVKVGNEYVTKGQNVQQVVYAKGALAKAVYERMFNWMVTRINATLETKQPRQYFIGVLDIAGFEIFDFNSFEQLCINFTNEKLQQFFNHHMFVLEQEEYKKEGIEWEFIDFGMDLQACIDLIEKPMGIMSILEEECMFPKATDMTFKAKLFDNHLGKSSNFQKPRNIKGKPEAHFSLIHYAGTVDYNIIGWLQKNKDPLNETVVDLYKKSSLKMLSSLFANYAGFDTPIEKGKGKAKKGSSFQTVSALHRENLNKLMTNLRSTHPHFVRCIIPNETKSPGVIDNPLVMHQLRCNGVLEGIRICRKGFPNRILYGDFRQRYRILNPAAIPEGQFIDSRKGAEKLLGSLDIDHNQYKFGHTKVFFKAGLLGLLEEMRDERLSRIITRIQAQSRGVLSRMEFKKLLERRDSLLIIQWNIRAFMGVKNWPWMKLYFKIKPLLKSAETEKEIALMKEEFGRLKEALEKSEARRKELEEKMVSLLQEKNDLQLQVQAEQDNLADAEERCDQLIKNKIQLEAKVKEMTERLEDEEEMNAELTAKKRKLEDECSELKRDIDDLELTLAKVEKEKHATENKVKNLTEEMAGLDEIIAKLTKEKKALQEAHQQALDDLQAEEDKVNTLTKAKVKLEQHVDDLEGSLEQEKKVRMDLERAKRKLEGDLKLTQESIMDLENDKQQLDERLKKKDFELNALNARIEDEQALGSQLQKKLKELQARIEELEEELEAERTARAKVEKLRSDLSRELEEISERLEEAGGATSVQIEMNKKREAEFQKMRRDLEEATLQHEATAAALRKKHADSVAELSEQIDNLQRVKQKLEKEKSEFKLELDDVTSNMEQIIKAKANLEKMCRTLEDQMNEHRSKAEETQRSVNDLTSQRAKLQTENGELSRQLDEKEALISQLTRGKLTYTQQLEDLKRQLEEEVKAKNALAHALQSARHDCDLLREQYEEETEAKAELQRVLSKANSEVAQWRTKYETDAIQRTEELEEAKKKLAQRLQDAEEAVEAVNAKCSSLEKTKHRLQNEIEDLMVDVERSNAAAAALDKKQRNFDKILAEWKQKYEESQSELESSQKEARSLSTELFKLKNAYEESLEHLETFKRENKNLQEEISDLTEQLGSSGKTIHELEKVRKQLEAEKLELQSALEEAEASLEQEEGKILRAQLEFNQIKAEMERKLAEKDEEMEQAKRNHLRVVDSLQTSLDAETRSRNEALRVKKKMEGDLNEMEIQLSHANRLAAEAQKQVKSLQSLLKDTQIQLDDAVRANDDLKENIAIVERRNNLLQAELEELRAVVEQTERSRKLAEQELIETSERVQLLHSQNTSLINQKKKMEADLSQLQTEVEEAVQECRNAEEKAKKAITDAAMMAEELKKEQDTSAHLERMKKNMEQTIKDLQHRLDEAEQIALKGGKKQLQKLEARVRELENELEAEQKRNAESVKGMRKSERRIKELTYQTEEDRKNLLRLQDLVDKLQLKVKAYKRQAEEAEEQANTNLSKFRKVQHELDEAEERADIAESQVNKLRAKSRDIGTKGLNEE
Chain of bovine cardiac myofibrils (full-length cardiac myosin ATPase in the native sarcomere) (P85100 whole entry partner): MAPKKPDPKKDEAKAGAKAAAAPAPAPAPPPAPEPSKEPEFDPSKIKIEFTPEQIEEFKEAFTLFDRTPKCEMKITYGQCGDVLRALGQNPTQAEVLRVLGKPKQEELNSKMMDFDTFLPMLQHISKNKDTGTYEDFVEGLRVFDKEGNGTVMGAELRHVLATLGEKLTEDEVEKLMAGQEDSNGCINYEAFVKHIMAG
Chain of bovine cardiac myofibrils (full-length cardiac myosin ATPase in the native sarcomere) (Q3SZE5 whole entry partner): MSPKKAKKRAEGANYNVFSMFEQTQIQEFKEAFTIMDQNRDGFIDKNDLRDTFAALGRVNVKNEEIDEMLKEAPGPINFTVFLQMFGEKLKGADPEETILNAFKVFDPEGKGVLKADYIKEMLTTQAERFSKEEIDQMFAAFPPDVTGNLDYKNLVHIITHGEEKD

SMILES	CDMF75 IC15 [µM]	IC50 [µM]
O=C(N[C@@H]1CCc2cc(-c3noc(C4CC4)n3)ccc21)OCC1CC1 [Compound 326, cyclopropylmethyl (R)-(5-(5-cyclopropyl-1,2,4-oxadiazol-3-yl)-2,3-dihydro-1H-inden-1-yl)carbamate]	0.6	2.4
COCCOC(=O)N[C@@H]1CCc2cc(-c3noc(C4CC4)n3)ccc21 [Compound 327, 2-methoxyethyl (R)-(5-(5-cyclopropyl-1,2,4-oxadiazol-3-yl)-2,3-dihydro-1H-inden-1-yl)carbamate]	1.8	8.2
O=C(N[C@@H]1CCc2cc(-c3noc(C4CC4)n3)ccc21)OC1CCCC1 [Compound 328, cyclopentyl (R)-(5-(5-cyclopropyl-1,2,4-oxadiazol-3-yl)-2,3-dihydro-1H-inden-1-yl)carbamate]	1.2	> 39.2
CCc1nc(-c2ccc3c(c2)CC[C@H]3NC(=O)C2(C)CC2)no1 [Compound 329, (R)-N-(5-(5-ethyl-1,2,4-oxadiazol-3-yl)-2,3-dihydro-1H-inden-1-yl)-1-methylcyclopropane-1-carboxamide]	1.7	7
CC1(C(=O)N[C@@H]2CCc3cc(-c4noc(C5CC5)n4)ccc32)CC1 [Compound 330, (R)-N-(5-(5-cyclopropyl-1,2,4-oxadiazol-3-yl)-2,3-dihydro-1H-inden-1-yl)-1-methylcyclopropane-1-carboxamide]	3.8	17.7
CC(=O)N1CC[C@@H]1C(=O)N[C@@H]1CCc2cc(-c3noc(C4CC4)n3)ccc21 [Compound 331, (R)-1-acetyl-N-((R)-5-(5-cyclopropyl-1,2,4-oxadiazol-3-yl)-2,3-dihydro-1H-inden-1-yl)azetidine-2-carboxamide]	20.0	> 39.2
CC(=O)N1CC[C@H]1C(=O)N[C@@H]1CCc2cc(-c3noc(C4CC4)n3)ccc21 [Compound 332, (S)-1-acetyl-N-((R)-5-(5-cyclopropyl-1,2,4-oxadiazol-3-yl)-2,3-dihydro-1H-inden-1-yl)azetidine-2-carboxamide]	39.2	> 39.2
CCc1nc(-c2ccc3c(c2)CC[C@H]3NC(=O)OCC(F)F)no1 [Compound 333, 2,2-difluoroethyl (R)-(5-(5-ethyl-1,2,4-oxadiazol-3-yl)-2,3-dihydro-1H-inden-1-yl)carbamate]	0.3	0.9
O=C(N[C@@H]1CCc2cc(-c3noc(C4CC4)n3)ccc21)OCC(F)F [Compound 334, 2,2-difluoroethyl (R)-(5-(5-cyclopropyl-1,2,4-oxadiazol-3-yl)-2,3-dihydro-1H-inden-1-yl)carbamate]	0.6	1.9
CCc1nc(-c2ccc3c(c2)CC[C@H]3NC(=O)[C@H]2CCC(=O)N2)no1 [Compound 335, (R)-N-((R)-5-(5-ethyl-1,2,4-oxadiazol-3-yl)-2,3-dihydro-1H-inden-1-yl)-5-oxopyrrolidine-2-carboxamide]	19.1	> 39.2
O=C1CC[C@H](C(=O)N[C@@H]2CCc3cc(-c4noc(C5CC5)n4)ccc32)N1 [Compound 336, (R)-N-((R)-5-(5-cyclopropyl-1,2,4-oxadiazol-3-yl)-2,3-dihydro-1H-inden-1-yl)-5-oxopyrrolidine-2-carboxamide]	30.9	> 39.2
CCc1nc(-c2ccc3c(c2)CC[C@H]3NC(=O)[C@@H]2CCC(=O)N2)no1 [Compound 337, (S)-N-((R)-5-(5-ethyl-1,2,4-oxadiazol-3-yl)-2,3-dihydro-1H-inden-1-yl)-5-oxopyrrolidine-2-carboxamide]	24.7	> 39.2
O=C1CC[C@@H](C(=O)N[C@@H]2CCc3cc(-c4noc(C5CC5)n4)ccc32)N1 [Compound 338, (S)-N-((R)-5-(5-cyclopropyl-1,2,4-oxadiazol-3-yl)-2,3-dihydro-1H-inden-1-yl)-5-oxopyrrolidine-2-carboxamide]	39.2	> 39.2
CCc1nc(-c2ccc3c(c2)OC[C@H]3NC(=O)c2cc(C)no2)no1 [Compound 339, (S)-N-(6-(5-ethyl-1,2,4-oxadiazol-3-yl)-2,3-dihydrobenzofuran-3-yl)-3-methylisoxazole-5-carboxamide]	0.4	1.2
CCc1nc(-c2ccc3c(c2)OC[C@H]3NC(=O)c2conc2C)no1 [Compound 340, (S)-N-(6-(5-ethyl-1,2,4-oxadiazol-3-yl)-2,3-dihydrobenzofuran-3-yl)-3-methylisoxazole-4-carboxamide]	0.3	0.7
[2H]C([2H])([2H])c1noc(-c2ccc3c(c2)OC[C@H]3NC(=O)c2cnn(C)c2C)n1 [Compound 341, (S)-1,5-dimethyl-N-(6-(3-(methyl-d3)-1,2,4-oxadiazol-5-yl)-2,3-dihydrobenzofuran-3-yl)-1H-pyrazole-4-carboxamide]	1.9	7.3

SMILES	CDMF75 IC15 [µM]	IC50 [µM]
[2H]C([2H])([2H])c1noc(-c2ccc3c(c2)OC[C@H]3NC(=O)c2nnn(C)n2)n1 [Compound 342, (S)-2-methyl-N-(6-(3-(methyl-d3)-1,2,4-oxadiazol-5-yl)-2,3-dihydrobenzofuran-3-yl)-2H-tetrazole-5-carboxamide]	8.0	> 39.2
Cc1noc(-c2ccc3c(c2)OC[C@H]3NC(=O)c2cnn(C)c2C)n1 [Compound 343, (S)-1,5-dimethyl-N-(6-(3-methyl-1,2,4-oxadiazol-5-yl)-2,3-dihydrobenzofuran-3-yl)-1H-pyrazole-4-carboxamide]	1.8	6.6
Cc1noc(-c2ccc3c(c2)OC[C@H]3NC(=O)c2nnn(C)n2)n1 [Compound 344, (S)-2-methyl-N-(6-(3-methyl-1,2,4-oxadiazol-5-yl)-2,3-dihydrobenzofuran-3-yl)-2H-tetrazole-5-carboxamide]	8.6	> 39.2
Cc1cc(C(=O)N[C@@H]2COc3cc(-c4noc(C)n4)ccc32)on1 [Compound 346, (S)-3-methyl-N-(6-(5-methyl-1,2,4-oxadiazol-3-yl)-2,3-dihydrobenzofuran-3-yl)isoxazole-5-carboxamide]	0.9	3.2
Cc1nc(-c2ccc3c(c2)OC[C@H]3NC(=O)c2conc2C)no1 [Compound 347, (S)-3-methyl-N-(6-(5-methyl-1,2,4-oxadiazol-3-yl)-2,3-dihydrobenzofuran-3-yl)isoxazole-4-carboxamide]	0.5	1.6
COC(=O)N[C@@H]1COc2cc(-c3noc(C4CC4)n3)ccc21 [Compound 348, methyl (S)-(6-(5-cyclopropyl-1,2,4-oxadiazol-3-yl)-2,3-dihydrobenzofuran-3-yl)carbamate]	0.5	1.8
CCc1nc(-c2ccc3c(c2)OC[C@H]3NC(=O)OC)no1 [Compound 349, methyl (S)-(6-(5-ethyl-1,2,4-oxadiazol-3-yl)-2,3-dihydrobenzofuran-3-yl)carbamate]	0.3	0.9
COC(=O)N[C@@H]1CCc2cc(-c3nc(C4CC4)no3)ccc21 [Compound 350, methyl (R)-(5-(3-cyclopropyl-1,2,4-oxadiazol-5-yl)-2,3-dihydro-1H-inden-1-yl)carbamate]	0.5	2.1
CCc1nc(-c2ccc3c(c2)CC[C@H]3NC(=O)[C@@H]2CCNC(=O)C2)no1 [Compound 351, (R)-N-((R)-5-(5-ethyl-1,2,4-oxadiazol-3-yl)-2,3-dihydro-1H-inden-1-yl)-2-oxopiperidine-4-carboxamide]	18.8	> 39.2
CCc1nc(-c2ccc3c(c2)CC[C@H]3NC(=O)C2CCC(=O)N(C)C2)no1 (stereo partly drawn) [Compound 352, N-((R)-5-(5-ethyl-1,2,4-oxadiazol-3-yl)-2,3-dihydro-1H-inden-1-yl)-1-methyl-6-oxopiperidine-3-carboxamide]	13.0	> 39.2
CCc1nc(-c2ccc3c(c2)CC[C@H]3NC(=O)C2CCCCN2C)no1 (stereo partly drawn) [Compound 353, N-((R)-5-(5-ethyl-1,2,4-oxadiazol-3-yl)-2,3-dihydro-1H-inden-1-yl)-1-methylpiperidine-2-carboxamide]	29.0	> 39.2
CCc1nc(-c2ccc3c(c2)CC[C@H]3NC(=O)C2CCCC(=O)N2)no1 (stereo partly drawn) [Compound 354, N-((R)-5-(5-ethyl-1,2,4-oxadiazol-3-yl)-2,3-dihydro-1H-inden-1-yl)-6-oxopiperidine-2-carboxamide]	34.1	> 39.2
CCc1nc(-c2ccc3c(c2)CC[C@H]3NC(=O)[C@H]2CCNC(=O)C2)no1 [Compound 355, (S)-N-((R)-5-(5-ethyl-1,2,4-oxadiazol-3-yl)-2,3-dihydro-1H-inden-1-yl)-2-oxopiperidine-4-carboxamide]	2.9	10.9
CCc1nc(-c2ccc3c(c2)CC[C@H]3NC(=O)[C@H]2COCCN2)no1 [Compound 356, (R)-N-((R)-5-(5-ethyl-1,2,4-oxadiazol-3-yl)-2,3-dihydro-1H-inden-1-yl)morpholine-3-carboxamide]	13.4	> 39.2
CCc1nc(-c2ccc3c(c2)CC[C@H]3NC(=O)OC2COC2)no1 [Compound 357, oxetan-3-yl (R)-(5-(5-ethyl-1,2,4-oxadiazol-3-yl)-2,3-dihydro-1H-inden-1-yl)carbamate]	0.5	1.7
CCc1nc(-c2ccc3c(c2)CC[C@H]3NC(=O)OCC2COC2)no1 [Compound 358, oxetan-3-ylmethyl (R)-(5-(5-ethyl-1,2,4-oxadiazol-3-yl)-2,3-dihydro-1H-inden-1-yl)carbamate]	0.6	2.2
